The source of these data is PubChem BioAssay AID2605 (Johns Hopkins Ion Channel Center, 2010).

The target in this test is Voltage-gated inwardly rectifying potassium channel KCNH2 (Homo sapiens) (UniProt Q12809). Kind of test: hERG rescue from dofetilide block, confirmation, manual patch clamp, HEK293 cells (AID 2605). The settings on record: at 10 µM, stronger effect = higher value; for potentiation: measured here: hERG potentiation without dofetilide. (hERG is a cardiac potassium channel; its block is linked to QT prolongation.)
Voltage-gated inwardly rectifying potassium channel KCNH2 (Homo sapiens), sequence (Q12809 whole entry, looked up): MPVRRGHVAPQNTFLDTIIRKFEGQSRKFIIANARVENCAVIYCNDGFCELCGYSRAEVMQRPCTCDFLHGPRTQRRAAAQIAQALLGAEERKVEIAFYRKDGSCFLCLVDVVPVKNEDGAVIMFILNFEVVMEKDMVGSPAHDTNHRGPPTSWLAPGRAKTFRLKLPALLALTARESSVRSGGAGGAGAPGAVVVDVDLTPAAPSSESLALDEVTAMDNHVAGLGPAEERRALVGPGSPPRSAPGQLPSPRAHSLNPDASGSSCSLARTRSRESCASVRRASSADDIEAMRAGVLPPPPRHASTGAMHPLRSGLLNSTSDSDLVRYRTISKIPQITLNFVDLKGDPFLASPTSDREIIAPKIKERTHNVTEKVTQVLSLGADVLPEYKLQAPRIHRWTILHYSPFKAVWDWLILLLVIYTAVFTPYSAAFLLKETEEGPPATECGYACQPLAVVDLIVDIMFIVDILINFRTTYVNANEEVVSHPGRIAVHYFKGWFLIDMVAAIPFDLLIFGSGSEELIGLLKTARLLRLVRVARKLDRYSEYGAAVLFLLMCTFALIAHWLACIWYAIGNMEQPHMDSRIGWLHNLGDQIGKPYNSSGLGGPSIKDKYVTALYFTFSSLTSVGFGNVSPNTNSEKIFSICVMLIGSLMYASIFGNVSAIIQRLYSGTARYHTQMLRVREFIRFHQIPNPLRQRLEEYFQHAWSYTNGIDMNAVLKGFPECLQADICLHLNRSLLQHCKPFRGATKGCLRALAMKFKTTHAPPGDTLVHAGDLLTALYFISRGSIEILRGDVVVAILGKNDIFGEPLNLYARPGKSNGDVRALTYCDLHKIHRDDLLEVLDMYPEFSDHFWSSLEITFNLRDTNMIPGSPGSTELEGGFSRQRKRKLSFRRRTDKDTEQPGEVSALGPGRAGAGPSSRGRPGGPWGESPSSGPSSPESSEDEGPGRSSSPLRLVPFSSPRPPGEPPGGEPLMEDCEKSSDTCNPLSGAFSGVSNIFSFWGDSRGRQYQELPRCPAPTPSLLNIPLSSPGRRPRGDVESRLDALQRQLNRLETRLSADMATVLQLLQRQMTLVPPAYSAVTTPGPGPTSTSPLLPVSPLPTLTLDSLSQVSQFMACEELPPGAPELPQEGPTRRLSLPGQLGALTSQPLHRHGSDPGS

Take `Cc1ccc(NC(=S)c2nc3ccccc3s2)cc1`: the current remaining with dofetilide was 23.9% and the potentiation was determined as 107%.
For `O=C(NC(=S)Nc1ccccc1)c1cc(-c2ccccc2)nc2ccccc12` the same measures were 31% and 119%.
For `CCC1CCCCN1C(=S)NC(=O)c1cccs1` (stereo not given) the same measures were 46.5% and 140%.
With `O=C1C2CC=CCC2C(=O)N1c1ccc(Cc2ccncc2)cc1` (stereo not given), the current remaining with dofetilide is 33.8% and the potentiation came out at 107%.
The matching figures for `Cc1cccc(NC(=S)NC(=O)c2cc(-c3ccccc3)nc3ccccc23)c1`: 32.2% and 107%.
